From patent publication US9302999B2, “Substituted triazoles as herbicides” (E. I. DU PONT DE NEMOURS AND COMPANY, priority 2012, dated 2016)

Assays:
Assay type in all cases: in vivo
[1] = tested on: pigweed (Amaranthus retroflexus); test: Test A pre-/postemergence: pigweed
Outline: (§1)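 Visual 0–100 injury ratings (0 no effect, 100 complete control) taken about ten days after treatment, relative to untreated controls. Preemergence treatment was a directed soil spray; postemergence plants were 2–10 cm tall at one- to two-leaf stage. Soil: loam/sand blend.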

[2] = tested on: velvetleaf (Abutilon theophrasti); test: Test A pre-/postemergence: velvetleaf
Outline: as §1

[3] = tested on: ducksalad (Heteranthera limosa); test: Test C flooded paddy test: ducksalad; details: scale 0 to 100 (0 no effect, 100 complete control)
Description: (§2) Plant species in the flooded paddy test consisted of rice (Oryza sativa), sedge, umbrella (small-flower umbrella sedge, Cyperus difformis), ducksalad (Heteranthera limosa) and barnyardgrass (Echinochloa crus-galli) grown to the 2-leaf stage for testing. At time of treatment, test pots were flooded to 3 cm above the soil surface, treated by application of test compounds directly to the paddy water, and then maintained at that water depth for the duration of the test.
(§3) Treated plants and controls were maintained in a greenhouse for 13 to 15 days, after which time all species were compared to controls and visually evaluated. Plant response ratings, summarized in Table C, are based on a scale of 0 to 100 where 0 is no effect and 100 is complete control. A dash (-) response means no test result.

[4] = tested on: barnyardgrass (Echinochloa crus-galli); test: Test C flooded paddy test: barnyardgrass; details: scale 0 to 100 (0 no effect, 100 complete control)
Outline: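 2-leaf stage plants; pots flooded 3 cm above soil; compound applied into paddy water, depth maintained. Greenhouse 13–15 d. Visual rating vs controls, 0–100 (0 = no effect, 100 = complete control); dash = no result.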

corn (Zea mays) = test: Test A pre-/postemergence: corn
Outline: as §1

[5] = tested on: morningglory (Ipomoea spp.); test: Test A pre-/postemergence: morningglory
Outline: as §1

[6] = tested on: wheat (Triticum aestivum); test: Test A pre-/postemergence: wheat
Outline: as §1

[7] = tested on: barnyardgrass (Echinochloa crus-galli); test: Test A pre-/postemergence: barnyardgrass
Outline: as §1

[8] = tested on: crabgrass, large (large crabgrass, Digitaria sanguinalis); test: Test A pre-/postemergence: crabgrass, large
Outline: as §1

[9] = tested on: foxtail, giant (giant foxtail, Setaria faberii); test: Test A pre-/postemergence: foxtail, giant
Outline: as §1

[10] = tested on: sedge, umbrella (small-flower umbrella sedge, Cyperus difformis); test: Test C flooded paddy test: sedge, umbrella; details: scale 0 to 100 (0 no effect, 100 complete control)
Description: as §2, §3

rice (Oryza sativa) = test: Test C flooded paddy test: rice; details: scale 0 to 100 (0 no effect, 100 complete control)
Description: as §2, §3

[11] = Postemergence, 125 g ai/ha, 0 to 100 scale, 0 is no effect, 100 is complete control
[12] = Postemergence, 500 g ai/ha, visual rating on 0 to 100 scale (0 no effect, 100 complete control), approximately ten days
[13] = Preemergence, 125 g ai/ha, 0 to 100 scale (0 no effect, 100 complete control)
[14] = Preemergence, 500 g ai/ha, 0 to 100 scale, 0 is no effect, 100 is complete control
[15] = Flood (flooded paddy test), 62 g ai/ha, visual rating after 13 to 15 days
[16] = Flood (flooded paddy test), 125 g ai/ha, visual rating after 13 to 15 days
[17] = Flood (flooded paddy test), 250 g ai/ha, visual rating after 13 to 15 days
[18] = Postemergence, 1000 g ai/ha, visual rating on 0 to 100 scale (0 no effect, 100 complete control), approximately ten days
[19] = Preemergence, 1000 g ai/ha, 0 to 100 scale, 0 is no effect, 100 is complete control
[20] = Preemergence, 125 g ai/ha, 0 to 100 scale where 0 is no effect and 100 is complete control

Cc1nn(-c2ccccc2[N+](=O)[O-])nc1C(=O)c1cccc(C(F)(F)F)c1 [Compound 63]
Pigweed plant response rating [1, 11]: 0 | Pigweed plant response rating [1, 12]: 10 | Plant response rating, Pigweed [1, 13]: 0 | Plant response rating, Pigweed [1, 14]: 0 | Velvetleaf plant response rating [2, 11]: 0 | Velvetleaf plant response rating [2, 12]: 0 | Plant response rating, Velvetleaf [2, 13]: 0 | Plant response rating, Velvetleaf [2, 14]: 0 | Plant response rating, Ducksalad [3, 15]: 0 | Plant response rating, Ducksalad [3, 16]: 0 | Plant response rating, Ducksalad [3, 17]: 0 | Plant response rating, Ducksalad ([3]; Flood, 31 g ai/ha): 0 | Plant response rating, Barnyardgrass [4, 15]: 0 | Plant response rating, Barnyardgrass [4, 16]: 0 | Plant response rating, Barnyardgrass [4, 17]: 0 | Plant response rating, Barnyardgrass ([4]; Flood, 31 g ai/ha): 0 | Corn plant response rating (corn (Zea mays); [11]): 0 | Corn plant response rating (corn (Zea mays); [12]): 0 | Plant response rating, Corn (corn (Zea mays); [13]): 0 | Plant response rating, Corn (corn (Zea mays); [14]): 0 | Morningglory plant response rating [5, 11]: 0 | Morningglory plant response rating [5, 12]: 0 | Plant response rating, Morningglory [5, 13]: 0 | Plant response rating, Morningglory [5, 14]: 0 | Wheat plant response rating [6, 11]: 0 | Wheat plant response rating [6, 12]: 0 | Plant response rating, Wheat [6, 13]: 0 | Plant response rating, Wheat [6, 14]: 0 | Barnyardgrass plant response rating [7, 11]: 0 | Barnyardgrass plant response rating [7, 12]: 0 | Plant response rating, Barnyardgrass [7, 13]: 0 | Plant response rating, Barnyardgrass [7, 14]: 0 | Crabgrass, Large plant response rating [8, 11]: 0 | Crabgrass, Large plant response rating [8, 12]: 0 | Plant response rating, Crabgrass, Large [8, 13]: 0 | Plant response rating, Crabgrass, Large [8, 14]: 0 | Foxtail, Giant plant response rating [9, 11]: 0 | Foxtail, Giant plant response rating [9, 12]: 0 | Plant response rating, Foxtail, Giant [9, 13]: 0 | Plant response rating, Foxtail, Giant [9, 14]: 0 | Plant response rating, Sedge, Umbrella [10, 15]: 0 | Plant response rating, Sedge, Umbrella [10, 16]: 0 | Plant response rating, Sedge, Umbrella [10, 17]: 0 | Plant response rating, Sedge, Umbrella ([10]; Flood, 31 g ai/ha): 0 | Plant response rating, Rice (rice (Oryza sativa); [15]): 0 | Plant response rating, Rice (rice (Oryza sativa); [16]): 0 | Plant response rating, Rice (rice (Oryza sativa); [17]): 0 | Plant response rating, Rice (rice (Oryza sativa); Flood, 31 g ai/ha): 0

CCc1nn(-c2ccc(C(F)(F)F)cc2)nc1Cn1ccc(C(F)(F)F)n1 [Compound 118]
Pigweed plant response rating [1, 18]: 100 | Pigweed plant response rating [1, 19]: 100 | Velvetleaf plant response rating [2, 18]: 70 | Velvetleaf plant response rating [2, 19]: 10 | Plant response rating, Ducksalad [3, 16]: 70 | Plant response rating, Ducksalad [3, 17]: 70 | Plant response rating, Ducksalad ([3]; Flood, 31 g ai/ha): 0 | Plant response rating, Ducksalad ([3]; Flood, 62 g ai/ha): 30 | Plant response rating, Barnyardgrass [4, 16]: 50 | Plant response rating, Barnyardgrass [4, 17]: 65 | Plant response rating, Barnyardgrass ([4]; Flood, 31 g ai/ha): 20 | Plant response rating, Barnyardgrass ([4]; Flood, 62 g ai/ha): 30 | Corn plant response rating (corn (Zea mays); [18]): 30 | Corn plant response rating (corn (Zea mays); [19]): 20 | Morningglory plant response rating [5, 18]: 100 | Morningglory plant response rating [5, 19]: 20 | Wheat plant response rating [6, 18]: 20 | Wheat plant response rating [6, 19]: 10 | Barnyardgrass plant response rating [7, 18]: 30 | Barnyardgrass plant response rating [7, 19]: 70 | Crabgrass, Large plant response rating [8, 18]: 90 | Crabgrass, Large plant response rating [8, 19]: 100 | Foxtail, Giant plant response rating [9, 18]: 60 | Foxtail, Giant plant response rating [9, 19]: 100 | Plant response rating, Sedge, Umbrella [10, 16]: 70 | Plant response rating, Sedge, Umbrella [10, 17]: 75 | Plant response rating, Sedge, Umbrella ([10]; Flood, 31 g ai/ha): 40 | Plant response rating, Sedge, Umbrella ([10]; Flood, 62 g ai/ha): 65 | Plant response rating, Rice (rice (Oryza sativa); [16]): 15 | Plant response rating, Rice (rice (Oryza sativa); [17]): 20 | Plant response rating, Rice (rice (Oryza sativa); Flood, 31 g ai/ha): 0 | Plant response rating, Rice (rice (Oryza sativa); Flood, 62 g ai/ha): 0

Cc1nn(-c2ccc(F)cc2)nc1Cn1cnc(C(F)(F)F)c1Cl [Compound 36]
Pigweed plant response rating [1, 11]: 0 | Pigweed plant response rating [1, 12]: 20 | Plant response rating, Pigweed [1, 13]: 0 | Plant response rating, Pigweed [1, 14]: 0 | Velvetleaf plant response rating [2, 11]: 0 | Velvetleaf plant response rating [2, 12]: 10 | Plant response rating, Velvetleaf [2, 13]: 0 | Plant response rating, Velvetleaf [2, 14]: 0 | Plant response rating, Ducksalad [3, 15]: 0 | Plant response rating, Ducksalad [3, 16]: 0 | Plant response rating, Ducksalad [3, 17]: 0 | Plant response rating, Ducksalad ([3]; Flood, 31 g ai/ha): 0 | Plant response rating, Barnyardgrass [4, 15]: 0 | Plant response rating, Barnyardgrass [4, 16]: 0 | Plant response rating, Barnyardgrass [4, 17]: 0 | Plant response rating, Barnyardgrass ([4]; Flood, 31 g ai/ha): 0 | Corn plant response rating (corn (Zea mays); [11]): 0 | Corn plant response rating (corn (Zea mays); [12]): 0 | Plant response rating, Corn (corn (Zea mays); [13]): 0 | Plant response rating, Corn (corn (Zea mays); [14]): 0 | Morningglory plant response rating [5, 11]: 0 | Morningglory plant response rating [5, 12]: 0 | Plant response rating, Morningglory [5, 13]: 0 | Plant response rating, Morningglory [5, 14]: 0 | Wheat plant response rating [6, 11]: 0 | Wheat plant response rating [6, 12]: 0 | Plant response rating, Wheat [6, 13]: 0 | Plant response rating, Wheat [6, 14]: 0 | Barnyardgrass plant response rating [7, 11]: 0 | Barnyardgrass plant response rating [7, 12]: 0 | Plant response rating, Barnyardgrass [7, 13]: 0 | Plant response rating, Barnyardgrass [7, 14]: 0 | Crabgrass, Large plant response rating [8, 11]: 0 | Crabgrass, Large plant response rating [8, 12]: 0 | Plant response rating, Crabgrass, Large [8, 13]: 0 | Plant response rating, Crabgrass, Large [8, 14]: 10 | Foxtail, Giant plant response rating [9, 11]: 0 | Foxtail, Giant plant response rating [9, 12]: 0 | Plant response rating, Foxtail, Giant [9, 13]: 0 | Plant response rating, Foxtail, Giant [9, 14]: 0 | Plant response rating, Sedge, Umbrella [10, 15]: 0 | Plant response rating, Sedge, Umbrella [10, 16]: 0 | Plant response rating, Sedge, Umbrella [10, 17]: 0 | Plant response rating, Sedge, Umbrella ([10]; Flood, 31 g ai/ha): 0 | Plant response rating, Rice (rice (Oryza sativa); [15]): 0 | Plant response rating, Rice (rice (Oryza sativa); [16]): 0 | Plant response rating, Rice (rice (Oryza sativa); [17]): 0 | Plant response rating, Rice (rice (Oryza sativa); Flood, 31 g ai/ha): 0

CCc1nn(-c2ccc(C(F)(F)F)cn2)nc1Cc1cccc(C(F)(F)F)c1 [Compound 108]
Pigweed plant response rating [1, 11]: 90 | Pigweed plant response rating [1, 12]: 100 | Plant response rating, Pigweed [1, 20]: 80 | Plant response rating, Pigweed [1, 14]: 100 | Velvetleaf plant response rating [2, 11]: 60 | Velvetleaf plant response rating [2, 12]: 80 | Plant response rating, Velvetleaf [2, 20]: 0 | Plant response rating, Velvetleaf [2, 14]: 20 | Plant response rating, Ducksalad [3, 16]: 30 | Plant response rating, Ducksalad [3, 17]: 45 | Plant response rating, Ducksalad ([3]; Flood, 31 g ai/ha): 0 | Plant response rating, Ducksalad ([3]; Flood, 62 g ai/ha): 0 | Plant response rating, Barnyardgrass [4, 16]: 20 | Plant response rating, Barnyardgrass [4, 17]: 30 | Plant response rating, Barnyardgrass ([4]; Flood, 31 g ai/ha): 0 | Plant response rating, Barnyardgrass ([4]; Flood, 62 g ai/ha): 0 | Corn plant response rating (corn (Zea mays); [11]): 20 | Corn plant response rating (corn (Zea mays); [12]): 30 | Plant response rating, Corn (corn (Zea mays); [13]): 0 | Plant response rating, Corn (corn (Zea mays); [14]): 0 | Morningglory plant response rating [5, 11]: 100 | Morningglory plant response rating [5, 12]: 100 | Plant response rating, Morningglory [5, 20]: 0 | Plant response rating, Morningglory [5, 14]: 20 | Wheat plant response rating [6, 11]: 20 | Wheat plant response rating [6, 12]: 30 | Plant response rating, Wheat [6, 20]: 0 | Plant response rating, Wheat [6, 14]: 0 | Barnyardgrass plant response rating [7, 11]: 40 | Barnyardgrass plant response rating [7, 12]: 70 | Plant response rating, Barnyardgrass [7, 13]: 30 | Plant response rating, Barnyardgrass [7, 14]: 80 | Crabgrass, Large plant response rating [8, 11]: 90 | Crabgrass, Large plant response rating [8, 12]: 90 | Plant response rating, Crabgrass, Large [8, 13]: 90 | Plant response rating, Crabgrass, Large [8, 14]: 100 | Foxtail, Giant plant response rating [9, 11]: 60 | Foxtail, Giant plant response rating [9, 12]: 90 | Plant response rating, Foxtail, Giant [9, 20]: 80 | Plant response rating, Foxtail, Giant [9, 14]: 100 | Plant response rating, Sedge, Umbrella [10, 16]: 75 | Plant response rating, Sedge, Umbrella [10, 17]: 85 | Plant response rating, Sedge, Umbrella ([10]; Flood, 31 g ai/ha): 20 | Plant response rating, Sedge, Umbrella ([10]; Flood, 62 g ai/ha): 20 | Plant response rating, Rice (rice (Oryza sativa); [16]): 15 | Plant response rating, Rice (rice (Oryza sativa); [17]): 20 | Plant response rating, Rice (rice (Oryza sativa); Flood, 31 g ai/ha): 0 | Plant response rating, Rice (rice (Oryza sativa); Flood, 62 g ai/ha): 0
